Patent US12319640B2, “Cyclic diones as herbicidal compounds” (SYNGENTA CROP PROTECTION AG, priority 2019, dated 2025)

How the values were obtained:
Test in all cases: Glasshouse herbicide test, pre- and post-emergence
Format in all cases: in vivo
[1] = tested on: Lolium perenne (LOLPE); settings: 250 g/h, evaluated after 13 days, five-point scale; for percentage damage caused to the plant, LOLPE POST: post-emergence; for percentage damage caused to the plant, LOLPE PRE: pre-emergence
Method: (§1) Seeds of a variety of test species are sown in standard soil in pots (Lolium perenne (LOLPE), Setaria faberi (SETFA), Alopecurus myosuroides (ALOMY), Echinochloa crus-galli (ECHCG), Avena fatua (AVEFA)). After cultivation for one day (pre-emergence) or after 8 days cultivation (post-emergence) under controlled conditions in a glasshouse (at 24/16° C., day/night; 14 hours light; 65% humidity), the plants are sprayed with an aqueous spray solution derived from the formulation of the technical active ingredient in acetone/water (50:50) solution containing 0.5% Tween 20 (polyoxyethelyene sorbitan monolaurate, CAS RN 9005-64-5). Compounds are applied at 250 g/h. The test plants are then grown in a glasshouse under controlled conditions in a glasshouse (at 24/16° C., day/night; 14 hours light; 65% humidity) and watered twice daily. After 13 days for pre and post-emergence, the test is evaluated for the percentage damage caused to the plant. The biological activities are shown in the following table on a five-point scale (5=80-100%; 4=60-79%; 3=40-59%; 2=20-39%; 1=0-19%).

[2] = tested on: Alopecurus myosuroides (ALOMY); settings: 250 g/h, evaluated after 13 days, five-point scale; for percentage damage caused to the plant, ALOMY POST: post-emergence; for percentage damage caused to the plant, ALOMY PRE: pre-emergence
Method: as §1

[3] = tested on: Avena fatua (AVEFA); settings: 250 g/h, evaluated after 13 days, five-point scale; for percentage damage caused to the plant, AVEFA POST: post-emergence; for percentage damage caused to the plant, AVEFA PRE: pre-emergence
Method: as §1

[4] = tested on: Echinochloa crus-galli (ECHCG); settings: 250 g/h, evaluated after 13 days, five-point scale; for percentage damage caused to the plant, ECHCG POST: post-emergence; for percentage damage caused to the plant, ECHCG PRE: pre-emergence
Method: as §1

[5] = tested on: Setaria faberi (SETFA); settings: 250 g/h, evaluated after 13 days, five-point scale; for percentage damage caused to the plant, SETFA POST: post-emergence; for percentage damage caused to the plant, SETFA PRE: pre-emergence
Method: as §1

| SMILES | percentage damage caused to the plant, LOLPE POST [1] | percentage damage caused to the plant, LOLPE PRE [1] | percentage damage caused to the plant, ALOMY POST [2] | percentage damage caused to the plant, ALOMY PRE [2] | percentage damage caused to the plant, AVEFA POST [3] | percentage damage caused to the plant, AVEFA PRE [3] | percentage damage caused to the plant, ECHCG POST [4] | percentage damage caused to the plant, ECHCG PRE [4] | percentage damage caused to the plant, SETFA POST [5] | percentage damage caused to the plant, SETFA PRE [5] |
| --- | --- | --- | --- | --- | --- | --- | --- | --- | --- | --- |
| CNC(=O)C1CCC2(CC1)CC(=O)C(c1c(C)cc(-c3ccc(F)cn3)cc1C)C(=O)C2 (centres unmarked) [Compound 1.024] | 5 (5=80-100%) | 5 (5=80-100%) | 5 (5=80-100%) | 5 (5=80-100%) | 5 (5=80-100%) | 5 (5=80-100%) | 5 (5=80-100%) | 5 (5=80-100%) | 5 (5=80-100%) | 5 (5=80-100%) |
| CNC(=O)C1CCC2(CC1)CC(=O)C(c1c(C)cc(-c3ccc(F)cc3)cc1C)C(=O)C2 (centres unmarked) [Compound 1.025] | 5 (5=80-100%) | 5 (5=80-100%) | 5 (5=80-100%) | 5 (5=80-100%) | 5 (5=80-100%) | 5 (5=80-100%) | 5 (5=80-100%) | 5 (5=80-100%) | 5 (5=80-100%) | 5 (5=80-100%) |
| CC#Cc1cc(C)c(C2C(=O)CC3(CCC(NC(C)=O)CC3)CC2=O)c(C)c1 (centres unmarked) [Compound 2.001, N-[3-(2,6-dimethyl-4-prop-1-ynyl-phenyl)-2,4-dioxo-spiro[5.5]undecan-9-yl]acetamide] | 5 (5=80-100%) | 5 (5=80-100%) | 5 (5=80-100%) | 5 (5=80-100%) | 5 (5=80-100%) | 5 (5=80-100%) | 5 (5=80-100%) | 5 (5=80-100%) | 5 (5=80-100%) | 5 (5=80-100%) |
| CC#Cc1cc(C)c(C2C(=O)CC3(CCC(NC(C)=O)CC3)CC2=O)c(OC)c1 (centres unmarked) [Compound 2.003] | 5 (5=80-100%) | 5 (5=80-100%) | 5 (5=80-100%) | 5 (5=80-100%) | 5 (5=80-100%) | 5 (5=80-100%) | 5 (5=80-100%) | 5 (5=80-100%) | 5 (5=80-100%) | 5 (5=80-100%) |
| CC#Cc1cc(C)c(C2C(=O)CC3(CCC(NC(=O)C4CC4)CC3)CC2=O)c(C)c1 (centres unmarked) [Compound 2.004] | 5 (5=80-100%) | 5 (5=80-100%) | 5 (5=80-100%) | 5 (5=80-100%) | 5 (5=80-100%) | 5 (5=80-100%) | 5 (5=80-100%) | 5 (5=80-100%) | 5 (5=80-100%) | 5 (5=80-100%) |
| CC#Cc1cc(C)c(C2C(=O)CC3(CCC(NC(=O)C(C)(C)C)CC3)CC2=O)c(C)c1 (centres unmarked) [Compound 2.005] | 5 (5=80-100%) | 5 (5=80-100%) | 5 (5=80-100%) | 5 (5=80-100%) | 5 (5=80-100%) | 5 (5=80-100%) | 5 (5=80-100%) | 5 (5=80-100%) | 5 (5=80-100%) | 5 (5=80-100%) |
| CC#Cc1cc(C)c(C2C(=O)CC3(CCC(NC(=O)c4ccccn4)CC3)CC2=O)c(C)c1 (centres unmarked) [Compound 2.006] | 5 (5=80-100%) | 5 (5=80-100%) | 5 (5=80-100%) | 5 (5=80-100%) | 5 (5=80-100%) | 4 (4=60-79%) | 5 (5=80-100%) | 5 (5=80-100%) | 5 (5=80-100%) | 5 (5=80-100%) |
| CC#Cc1cc(C)c(C2C(=O)CC3(CCC(NC(=O)C(=O)NC)CC3)CC2=O)c(C)c1 (centres unmarked) [Compound 2.007] | 5 (5=80-100%) | 5 (5=80-100%) | 5 (5=80-100%) | 5 (5=80-100%) | 5 (5=80-100%) | 5 (5=80-100%) | 5 (5=80-100%) | 5 (5=80-100%) | 5 (5=80-100%) | 5 (5=80-100%) |
| CC#Cc1cc(C)c(C2C(=O)CC3(CCC(NC(=O)COC(F)F)CC3)CC2=O)c(C)c1 (centres unmarked) [Compound 2.008] | 5 (5=80-100%) | 5 (5=80-100%) | 5 (5=80-100%) | 5 (5=80-100%) | 5 (5=80-100%) | 5 (5=80-100%) | 5 (5=80-100%) | 5 (5=80-100%) | 5 (5=80-100%) | 5 (5=80-100%) |
| CC#Cc1cc(C)c(C2C(=O)CC3(CCC(NC(=O)C4COCCO4)CC3)CC2=O)c(C)c1 (centres unmarked) [Compound 2.009] | 5 (5=80-100%) | 5 (5=80-100%) | 4 (4=60-79%) | 4 (4=60-79%) | 5 (5=80-100%) | 4 (4=60-79%) | 5 (5=80-100%) | 5 (5=80-100%) | 5 (5=80-100%) | 5 (5=80-100%) |
| CC#Cc1cc(C)c(C2C(=O)CC3(CCC(NC(=O)CC#N)CC3)CC2=O)c(C)c1 (centres unmarked) [Compound 2.010] | 5 (5=80-100%) | 5 (5=80-100%) | 5 (5=80-100%) | 5 (5=80-100%) | 5 (5=80-100%) | 5 (5=80-100%) | 5 (5=80-100%) | 5 (5=80-100%) | 5 (5=80-100%) | 5 (5=80-100%) |
| CC#Cc1cc(C)c(C2C(=O)CC3(CCC(NC(=O)C(F)F)CC3)CC2=O)c(C)c1 (centres unmarked) [Compound 2.011] | 5 (5=80-100%) | 5 (5=80-100%) | 5 (5=80-100%) | 5 (5=80-100%) | 5 (5=80-100%) | 5 (5=80-100%) | 5 (5=80-100%) | 5 (5=80-100%) | 5 (5=80-100%) | 5 (5=80-100%) |
| CC#Cc1cc(C)c(C2C(=O)CC3(CCC(NC(=O)Nc4ccccn4)CC3)CC2=O)c(C)c1 (centres unmarked) [Compound 2.012] | 5 (5=80-100%) | 5 (5=80-100%) | 4 (4=60-79%) | 4 (4=60-79%) | 5 (5=80-100%) | 3 (3=40-59%) | 4 (4=60-79%) | 4 (4=60-79%) | 4 (4=60-79%) | 4 (4=60-79%) |
| CC#Cc1cc(C)c(C2C(=O)CC3(CCC(NC(=O)CCC#N)CC3)CC2=O)c(C)c1 (centres unmarked) [Compound 2.013] | 5 (5=80-100%) | 5 (5=80-100%) | 5 (5=80-100%) | 3 (3=40-59%) | 5 (5=80-100%) | 5 (5=80-100%) | 5 (5=80-100%) | 5 (5=80-100%) | 5 (5=80-100%) | 5 (5=80-100%) |
